Laboratory results published in ChEMBL document CHEMBL5233271, “Discovering the Mechanisms of Wikstroelide E as a Potential HIV-Latency-Reversing Agent by Transcriptome Profiling” (J Nat Prod, 2021).
The source made the active and inactive calls.

Key:
J-Lat Tat-GFP Clone A2 [1] = assay: Upregulation of DGKA gene expression in human J-Lat Tat-GFP Clone A2 cells at 10 nM measured after 6 hrs by transcriptome analysis; format: functional, cell-based
J-Lat Tat-GFP Clone A2 [2] = assay: Downregulation of INTS10 gene expression in human J-Lat Tat-GFP Clone A2 cells at 10 nM measured after 6 hrs by transcriptome analysis; format: functional, cell-based
[3] = test system: Human immunodeficiency virus; assay: HIV-latency reversing activity in human NH2 cells at 10 nM pretreated with PKC inhibitor, Go6983 for 1 hr followed by compound addition and measured after 12 hrs by luciferase based assay; format: functional, organism-based
J-Lat Tat-GFP Clone A2 [4] = assay: Activation of NFkappaB signalling pathway in human J-Lat Tat-GFP Clone A2 cells assessed as induction of IkappaBalpha degradation at 40 nM by Western blot analysis; format: cell-based; settings: filed as activator, time 5-120 min, TDE = time-dependent effect
[5] = Cytotoxicity against human NH2 cells at 1 uM incubated for 72 hrs; format: toxicity, cell-based; settings: nh2, 72 h
NH2 [6] = assay: Activation of NFkappaB signalling pathway in human NH2 cells assessed as increase in IkappaBalpha phosphorylation at 40 nM by Western blot analysis; format: cell-based; settings: filed as activator, time 5-120 min, TDE = time-dependent effect
J-Lat Tat-GFP Clone A2 [7] = assay: Downregulation of CNBP gene expression in human J-Lat Tat-GFP Clone A2 cells at 10 nM measured after 6 hrs by transcriptome analysis; format: functional, cell-based
NH2 [8] = assay: Activation of NFkappaB signalling pathway in human NH2 cells assessed as increase in IkappaBalpha phosphorylation measured after 1 hr by Western blot analysis; format: cell-based; settings: filed as activator, dose 0-80 nM
J-Lat Tat-GFP Clone A2 [9] = assay: Upregulation of CD69 gene expression in human J-Lat Tat-GFP Clone A2 cells at 10 nM measured after 6 hrs by transcriptome analysis; format: functional, cell-based
[10] = test system: Human immunodeficiency virus; assay: Reactivation of latent HIV in human J-Lat Tat-GFP Clone A2 cells assessed as increase in GFP expression at 0 to 20 nM measured after 24 hrs by fluorescence microscopy; format: functional, organism-based; settings: dose 0-20 nM
[11] = test system: Human immunodeficiency virus; assay: Reactivation of latent HIV in human NH1 cells measured after 24 hrs by luciferase based analysis; format: functional, organism-based; settings: dose 0.5-10 nM
J-Lat Tat-GFP Clone A2 [12] = assay: Cytotoxicity against human J-Lat Tat-GFP Clone A2 cells at 1 uM incubated for 72 hrs; format: toxicity, cell-based; settings: j-lat tat-gfp clone a2, 72 h
J-Lat Tat-GFP Clone A2 [13] = assay: Upregulation of DDRGK1 gene expression in human J-Lat Tat-GFP Clone A2 cells at 10 nM measured after 6 hrs by transcriptome analysis; format: functional, cell-based
J-Lat Tat-GFP Clone A2 [14] = assay: Upregulation of CORO1A gene expression in human J-Lat Tat-GFP Clone A2 cells at 10 nM measured after 6 hrs by transcriptome analysis; format: functional, cell-based
[15] = test system: Human immunodeficiency virus; assay: HIV-latency reversing activity in human NH2 cells at 10 nM measured after 24 hrs by luciferase based assay; format: functional, organism-based
[16] = test system: Human immunodeficiency virus; assay: Reactivation of latent HIV in human J-Lat Tat-GFP Clone A2 cells measured after 24 hrs by fluorescence based analysis; format: functional, organism-based; settings: dose 0.5-40 nM
J-Lat Tat-GFP Clone A2 [17] = assay: Activation of NFkappaB signalling pathway in human J-Lat Tat-GFP Clone A2 cells assessed as increase in IkappaBalpha phosphorylation measured after 1 hr by Western blot analysis; format: cell-based; settings: filed as activator, dose 0-80 nM
J-Lat Tat-GFP Clone A2 [18] = assay: Downregulation of CHEK1 gene expression in human J-Lat Tat-GFP Clone A2 cells at 10 nM measured after 6 hrs by transcriptome analysis; format: functional, cell-based
[19] = test system: Human immunodeficiency virus; assay: Reactivation of latent HIV in human NH2 cells at 10 nM by luciferase based analysis; format: functional, organism-based; settings: time 6-36 hrs, TDE = time-dependent effect
J-Lat Tat-GFP Clone A2 [20] = assay: Upregulation of SACM1L gene expression in human J-Lat Tat-GFP Clone A2 cells at 10 nM measured after 6 hrs by transcriptome analysis; format: functional, cell-based
[21] = test system: Human immunodeficiency virus; assay: Reactivation of latent HIV in human NH1 cells at 10 nM by luciferase based analysis; format: functional, organism-based; settings: time 6-36 hrs, TDE = time-dependent effect
NH2 [22] = assay: Activation of NFkappaB signalling pathway in human NH2 cells assessed as increase in translocation of p65 from cytoplasm to nucleus at 40 nM pretreated with PKC inhibitor, Go6983 for 1 hr followed by compound addition and measured after 12 hrs by Western blot analysis; format: cell-based
[23] = test system: Human immunodeficiency virus; assay: HIV-latency reversing activity in human J-Lat Tat-GFP Clone A2 cells at 10 nM measured after 24 hrs by fluorescence based analysis; format: functional, organism-based
NH2 [24] = assay: Activation of NFkappaB signalling pathway in human NH2 cells assessed as induction of IkappaBalpha degradation measured after 1 hr by Western blot analysis; format: cell-based; settings: filed as activator, dose 0-80 nM
J-Lat Tat-GFP Clone A2 [25] = assay: Activation of NFkappaB signalling pathway in human J-Lat Tat-GFP Clone A2 cells assessed as induction of IkappaBalpha degradation measured after 1 hr by Western blot analysis; format: cell-based; settings: filed as activator, dose 0-80 nM
J-Lat Tat-GFP Clone A2 [26] = assay: Upregulation of HSP90B1 gene expression in human J-Lat Tat-GFP Clone A2 cells at 10 nM measured after 6 hrs by transcriptome analysis; format: functional, cell-based
J-Lat Tat-GFP Clone A2 [27] = assay: Downregulation of IKBKG gene expression in human J-Lat Tat-GFP Clone A2 cells at 10 nM measured after 6 hrs by transcriptome analysis; format: functional, cell-based
[28] = test system: Human immunodeficiency virus; assay: HIV-latency reversing activity in human NH2 cells at 10 nM pretreated with PDTC for 1 hr followed by compound addition and measured after 12 hrs by luciferase based assay; format: functional, organism-based
[29] = test system: Human immunodeficiency virus; assay: Reactivation of latent HIV in human J-Lat 2D10 cells at 10 nM by fluorescence based analysis; format: functional, organism-based; settings: time 6-36 hrs, TDE = time-dependent effect
[30] = test system: Human immunodeficiency virus; assay: HIV-latency reversing activity in human NH2 cells at 10 nM pretreated with BAY11-7082 for 1 hr followed by compound addition and measured after 12 hrs by luciferase based assay; format: functional, organism-based
J-Lat Tat-GFP Clone A2 [31] = assay: Downregulation of LRSAM1 gene expression in human J-Lat Tat-GFP Clone A2 cells at 10 nM measured after 6 hrs by transcriptome analysis; format: functional, cell-based
J-Lat Tat-GFP Clone A2 [32] = assay: Downregulation of PRKCQ gene expression in human J-Lat Tat-GFP Clone A2 cells at 10 nM measured after 6 hrs by transcriptome analysis; format: functional, cell-based
[33] = test system: Human immunodeficiency virus; assay: Reactivation of latent HIV in human J-Lat Tat-GFP Clone A2 cells assessed as increase in GFP expression at 10 nM by live fluorescence imaging analysis; format: functional, organism-based; settings: time 6-36 hrs, TDE = time-dependent effect
J-Lat Tat-GFP Clone A2 [34] = assay: Upregulation of CLIC1 gene expression in human J-Lat Tat-GFP Clone A2 cells at 10 nM measured after 6 hrs by transcriptome analysis; format: functional, cell-based
J-Lat Tat-GFP Clone A2 [35] = assay: Upregulation of BZW1 gene expression in human J-Lat Tat-GFP Clone A2 cells at 10 nM measured after 6 hrs by transcriptome analysis; format: functional, cell-based
J-Lat Tat-GFP Clone A2 [36] = assay: Activation of NFkappaB signalling pathway in human J-Lat Tat-GFP Clone A2 cells assessed as increase in translocation of p65 from cytoplasm to nucleus at 40 nM measured after 15 to 60 mins by Western blot analysis; format: cell-based; settings: filed as activator, time 15-60 min
[37] = test system: Human immunodeficiency virus; assay: Reactivation of latent HIV in human J-Lat Tat-GFP Clone A2 cells at 10 nM by fluorescence based analysis; format: functional, organism-based; settings: time 6-36 hrs, TDE = time-dependent effect
J-Lat Tat-GFP Clone A2 [38] = assay: Downregulation of ADI1 gene expression in human J-Lat Tat-GFP Clone A2 cells at 10 nM measured after 6 hrs by transcriptome analysis; format: functional, cell-based
[39] = test system: Human immunodeficiency virus; assay: Reactivation of latent HIV in human J-Lat 2D10 cells measured after 24 hrs by fluorescence based analysis; format: functional, organism-based; settings: dose 0.5-40 nM
[40] = test system: Human immunodeficiency virus; assay: HIV-latency reversing activity in human NH2 cells at 10 nM pretreated with JAK inhibitor, -decernotinib for 1 hr followed by compound addition and measured after 12 hrs by luciferase based assay; format: functional, organism-based
[41] = test system: Human immunodeficiency virus; assay: Reactivation of latent HIV in human NH2 cells measured after 24 hrs by luciferase based analysis; format: functional, organism-based; settings: dose 0.5-10 nM
J-Lat Tat-GFP Clone A2 [42] = assay: Downregulation of FLNB gene expression in human J-Lat Tat-GFP Clone A2 cells at 10 nM measured after 6 hrs by transcriptome analysis; format: functional, cell-based
NH2 [43] = assay: Activation of NFkappaB signalling pathway in human NH2 cells assessed as induction of IkappaBalpha degradation at 40 nM by Western blot analysis; format: cell-based; settings: filed as activator, time 5-120 min, TDE = time-dependent effect
[44] = test system: Human immunodeficiency virus; assay: Reactivation of latent HIV in human NH1 cells assessed as fold change measured after 24 hrs by luciferase based analysis relative to -prostratin; format: functional
J-Lat Tat-GFP Clone A2 [45] = assay: Activation of NFkappaB signalling pathway in human J-Lat Tat-GFP Clone A2 cells assessed as increase in IkappaBalpha phosphorylation at 40 nM by Western blot analysis; format: cell-based; settings: filed as activator, time 5-120 min, TDE = time-dependent effect
[46] = Cytotoxicity against human NH1 cells at 1 uM incubated for 72 hrs; format: toxicity, cell-based; settings: nh1, 72 h
NH2 [47] = assay: Activation of NFkappaB signalling pathway in human NH2 cells assessed as increase in translocation of p65 from cytoplasm to nucleus at 40 nM measured after 15 to 60 mins by Western blot analysis; format: cell-based; settings: filed as activator, time 15-60 min
J-Lat Tat-GFP Clone A2 [48] = assay: Downregulation of CCNB1 gene expression in human J-Lat Tat-GFP Clone A2 cells at 10 nM measured after 6 hrs by transcriptome analysis; format: functional, cell-based
J-Lat Tat-GFP Clone A2 [49] = assay: Upregulation of CHCHD2 gene expression in human J-Lat Tat-GFP Clone A2 cells at 10 nM measured after 6 hrs by transcriptome analysis; format: functional, cell-based
[50] = test system: Human immunodeficiency virus; assay: Reactivation of latent HIV in human NH2 cells assessed as fold change measured after 24 hrs by luciferase based analysis relative to -prostratin; format: functional
J-Lat Tat-GFP Clone A2 [51] = assay: Downregulation of ARID4B gene expression in human J-Lat Tat-GFP Clone A2 cells at 10 nM measured after 6 hrs by transcriptome analysis; format: functional, cell-based
[52] = Cytotoxicity against human J-Lat 2D10 cells at 1 uM incubated for 72 hrs; format: toxicity, cell-based
J-Lat Tat-GFP Clone A2 [53] = assay: Upregulation of FMNL1 gene expression in human J-Lat Tat-GFP Clone A2 cells at 10 nM measured after 6 hrs by transcriptome analysis; format: functional, cell-based

C=C(C)[C@]12C[C@@H](C)[C@@]34O[C@]5(CCCCCCC[C@H](C)[C@H]6[C@H](C)C(=O)[C@@](O)([C@H](O)[C@@]7(CO)O[C@H]7[C@H]3[C@H]1O5)[C@@H]64)O2
active: Activity (J-Lat Tat-GFP Clone A2 [1]) | Activity (J-Lat Tat-GFP Clone A2 [2]) | Activity (J-Lat Tat-GFP Clone A2 [4]) Tde | Activity (NH2 [6]) Tde | Activity (J-Lat Tat-GFP Clone A2 [7]) | Activity (NH2 [8]) Dose-Dependent Effect | Activity (J-Lat Tat-GFP Clone A2 [9]) | Activity [10] | Activity [11] Dose-Dependent Effect | Activity (J-Lat Tat-GFP Clone A2 [13]) | Activity (J-Lat Tat-GFP Clone A2 [14]) | Activity [15] | Activity [16] Dose-Dependent Effect | Activity (J-Lat Tat-GFP Clone A2 [17]) Dose-Dependent Effect | Activity (J-Lat Tat-GFP Clone A2 [18]) | Activity [19] Tde | Activity (J-Lat Tat-GFP Clone A2 [20]) | Activity [21] Tde | Activity [23] | Activity (NH2 [24]) Dose-Dependent Effect | Activity (J-Lat Tat-GFP Clone A2 [25]) Dose-Dependent Effect | Activity (J-Lat Tat-GFP Clone A2 [26]) | Activity (J-Lat Tat-GFP Clone A2 [27]) | Activity [29] Tde | Activity (J-Lat Tat-GFP Clone A2 [31]) | Activity (J-Lat Tat-GFP Clone A2 [32]) | Activity [33] Tde | Activity (J-Lat Tat-GFP Clone A2 [34]) | Activity (J-Lat Tat-GFP Clone A2 [35]) | Activity (J-Lat Tat-GFP Clone A2 [36]) | Activity [37] Tde | Activity (J-Lat Tat-GFP Clone A2 [38]) | Activity [39] Dose-Dependent Effect | Activity [41] Dose-Dependent Effect | Activity (J-Lat Tat-GFP Clone A2 [42]) | Activity (NH2 [43]) Tde | Activity (J-Lat Tat-GFP Clone A2 [45]) Tde | Activity (NH2 [47]) | Activity (J-Lat Tat-GFP Clone A2 [48]) | Activity (J-Lat Tat-GFP Clone A2 [49]) | Activity (J-Lat Tat-GFP Clone A2 [51]) | Activity (J-Lat Tat-GFP Clone A2 [53])
2500: fold change (FC) [44] | fold change (FC) [50]
inactive: Activity [3] | Activity (NH2 [22]) | Activity [28] | Activity [30] | Activity [40]
Non-Toxic: Activity [5] | Activity (J-Lat Tat-GFP Clone A2 [12]) | Activity [46] | Activity [52]
